Data set [1] concerns the target Recombinant human MALT1/MLT protein (Homo sapiens (Human), UniProt Q9UDY8). The data set can be described thus: Inhibitory effect on MALT1 enzyme activity (Ac-LRSR-AMC substrate, fluorescence 460 nm). It counts as biochemical. The note with it: 10 nM FL MALT1, Ac-LRSR-AMC substrate, 50 min pre-incubation, 4 h reaction. On the procedure:
Ac-LRSR-AMC was used as the substrate to test the IC50 of the inhibitory activity of compounds on MALT1 enzyme activity at their Km concentration.
Ac-LRSR-AMC was used as the substrate which was digested by MALT1 to produce products, which produced fluorescence that could be detected at 460 nm. The highest concentration of the compound detected was 1000 nM, 3-fold dilution, a total of 11 concentrations (1000 nM-0.017 nM). The reaction system is 10 nM FL MALT1 protein, […] Ac-LRSR-AMC, 50 mM Tris pH 7.5, 0.6M Citrate, 1 mM DTT, 1 mM EDTA, 0.05% BSA and 1.5% DMSO. The compound and the enzyme were pre-incubated at room temperature for 50 min. The substrate was then added and the reaction was carried out for 4 h.
The original data (460 nm reading) was calculated according to the following formula to obtain the inhibition rate.
(§1) Log(inhibitor) vs. response—Variable slope (four parameters) in GraphPad Prism 6 was used to perform fitting equation analysis on compound concentration and corresponding inhibition rate, the curve was fit and compound IC50 value was obtained.
(§2) The fitting calculation equation is Y=Bottom+(Top−Bottom)/(1+10^((Log IC50−X)*HillSlope))

The subject of a further data set is OCI-Ly3 cells. The experiment in a line: Inhibition of proliferation of OCI-Ly3 cells (CellTiter-Glo). It counts as cell-based, human. The note with it: 96 h incubation, read-out: Inhibition test of proliferation of OCI-Ly3 cells IC50. On the procedure:
The compound's inhibitory effect on the proliferation of TMD8 and OCI-Ly3 cells was evaluated through cell proliferation inhibition experiments.
The compound's inhibitory effect on the proliferation of TMD8 and OCI-Ly3 cells was detected by the CellTiter-Glo method. The highest concentration of the compound detected was 1000 nM, 3-fold dilution, a total of 9 concentrations (1000 nM-0.15 nM). After the cells were plated at an appropriate density, compounds were added the next day and incubated for 96 h before detection using the CellTiter-Glo Luminescent detection kit.
as §1, §2

In data set [2] the target is MALT1 protease activity in TMD8 cells (substrate BCL-10) (Homo sapiens (Human), UniProt Q9UDY8). The data set can be described thus: Intracellular MALT1 protease activity detection (BCL-10 ELISA in TMD8 cells). It counts as cell-based. The note with it: undigested BCL-10 by ELISA, 30 min compound then 2 h stimulation cocktail, read-out: Bcl10 TMD8 IC50. On the procedure: By detecting the digestion level of the substrate BCL-10 by MALT1 in TMD8 cells, the inhibitory effect of the compound on MALT1 protease activity in the cellular environment was tested.
Chain of MALT1 protease activity in TMD8 cells (substrate BCL-10) (Q9UDY8 whole entry): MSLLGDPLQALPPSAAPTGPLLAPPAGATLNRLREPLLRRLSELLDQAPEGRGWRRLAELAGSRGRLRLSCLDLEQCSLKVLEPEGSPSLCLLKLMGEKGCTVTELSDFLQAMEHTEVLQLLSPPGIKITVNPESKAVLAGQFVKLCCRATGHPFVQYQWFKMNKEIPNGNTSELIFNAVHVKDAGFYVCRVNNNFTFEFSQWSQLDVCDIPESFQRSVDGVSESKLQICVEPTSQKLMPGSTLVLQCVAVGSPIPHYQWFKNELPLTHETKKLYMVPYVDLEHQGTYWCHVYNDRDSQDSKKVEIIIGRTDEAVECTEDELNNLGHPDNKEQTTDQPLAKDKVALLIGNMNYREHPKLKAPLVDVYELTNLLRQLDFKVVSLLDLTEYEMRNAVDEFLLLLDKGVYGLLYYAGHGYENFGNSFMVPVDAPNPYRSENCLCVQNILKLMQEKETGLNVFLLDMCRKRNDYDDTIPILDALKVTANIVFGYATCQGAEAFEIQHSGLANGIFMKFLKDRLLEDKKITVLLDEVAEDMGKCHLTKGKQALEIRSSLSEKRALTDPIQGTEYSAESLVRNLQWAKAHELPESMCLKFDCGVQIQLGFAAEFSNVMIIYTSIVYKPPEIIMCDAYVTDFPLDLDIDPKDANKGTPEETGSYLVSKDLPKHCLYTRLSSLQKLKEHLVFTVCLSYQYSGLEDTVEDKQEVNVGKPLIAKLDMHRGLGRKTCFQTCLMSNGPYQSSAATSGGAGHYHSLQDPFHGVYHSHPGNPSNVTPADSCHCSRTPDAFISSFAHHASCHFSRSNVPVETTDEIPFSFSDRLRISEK
The ELISA sandwich method was used to detect the content of undigested BCL-10 protein in cells and determine the inhibitory effect of compounds on intracellular MALT1 protease activity. The highest concentration of the compound detected was 10000 nM, 3-fold dilution, a total of 9 concentrations (10000 nM-1.5 nM). Cells were plated at an appropriate density. Compounds of corresponding concentrations were first added for action for 30 min, and then eBioscience cell stimulation cocktail was added to stimulate the cells for 2 h. Cell lysate was then collected. The cell lysate was added to the assay plate previously coated with recombinant BCL-10 antibody (Abcam, #Ab33905) and incubated at 4° C. overnight. The next day, BCL-10 detection antibody (Santacruz, #Sc-5273HRP) was added and incubated for 2 h, TMB substrate was used for color development for about 30 min, then the color development was terminated, and a microplate reader was used for detection.
2) Curve fitting: Log(inhibitor) vs. response—Variable slope (four parameters) in GraphPad Prism 6 was used to perform fitting equation analysis on compound concentration and corresponding inhibition rate, the curve was fit and compound IC50 value was obtained.
as §2

A short description of data set [3]: Pharmacokinetics of oral administration in Balb/C mice. The note with it: male, mouse, po, 30 mg/kg, P.O., plasma; for AUC(0-t): read-out: AUC 0-t; for Cmax: read-out: Cmax; for Tmax: read-out: Tmax. It counts as in vivo. On the procedure:
Balb/C mice were used as test animals to study the pharmacokinetic behavior of the compound in the plasma of mice after oral administration at a dose of 30 mg/kg.
3 Balb/C mice (3/example), male, from Shanghai Jiesijie Experimental Animal Co., Ltd., animal production license number (SCXK (Shanghai) 2013-0006 N0.311620400001794).
3 Balb/C mice, male; p.o. respectively at a dose of 30 mg/kg and an administration volume of 10 mL/kg after the mice were fasted overnight.
Before and after administration of mice, 0.1 mL of blood was collected from the orbit at 0, 0.5, 1, 2, 4, 6, 8 and 24 h, and placed in EDTA-K2 test tubes, which was centrifuged at 6000 rpm at 4° C. for 6 min to separate plasma which was stored at −80° C.
• 1) 160 μL of acetonitrile was added to 40 μL of plasma sample for precipitation, and same was mixed and centrifuged at 3500×g for 5 to 20 min. • 2) 100 μL of the treated supernatant solution was taken and subjected to LC/MS/MS to analyze the concentrations of the test compounds.
• Liquid phase conditions: Shimadzu LC-20AD pump • Mass spectrometry conditions: AB Sciex API 4000 mass spectrometer • Chromatographic column: Phenomenex Gemiu 5 um C18 50×4.6 mm • Mobile phase: liquid A is 0.1% aqueous formic acid solution, liquid B is acetonitrile • flow rate: 0.8 mL/min • Elution time: 0-4.0 min, the eluent is as follows:
The main pharmacokinetic parameters were calculated using WinNonlin 8.2.

Each structure is given as a SMILES string. Read-outs that look alike come from different tables or passages of the source.

A word on the AUC(0-inf): it is total exposure, with the tail of the curve extrapolated. The half-life is the time in which the quantity being followed falls by half. For orientation: AUC(0-t) means the area under the concentration-time curve up to a stated or last time point. A word on the Cmax: it is the maximum level reached in the sampled fluid or tissue. Broadly, the MRT is a mean duration of stay, worked out from the concentration-time curve. A word on the Tmax: it is the time from dosing to the highest level.

Chain of Recombinant human MALT1/MLT protein (Q9UDY8 whole entry): as above

On to `O=C(Nc1ccnc(C(F)(F)F)c1)c1cnn(-c2ccc3c4c(cccc24)OC3)c1C(F)(F)F` [Example 15, 1-(2H-naphthalene [1,8-bc]furan-5-yl)-5-trifluoromethyl-N-(2-trifluoromethyl-pyridin-4-yl)-1H-pyrazole-4-carboxamide], for which the IC50 in data set [1] is 0.169 µM.
`O=C(Nc1cnc(-n2cccn2)c(C(F)(F)F)c1)c1cnn(-c2ccc3c4c(cccc24)C(=O)N3)c1C(F)(F)F` [Example 31, N-(6-(1H-pyrazol-1-yl)-5-(trifluoromethyl)pyridin-3-yl)-1-(2-carbonyl-1,2-dihydrobenzo[cd]indol-6-yl)-5-(trifluoromethyl)-1H-pyrazole-4-carboxamide]: the IC50 in the data set with OCI-Ly3 cells (Homo sapiens) was determined as 0.206 µM. In data set [2], the IC50 stood at 0.103 µM. For the same compound, in data set [3], the AUC(0-inf) was determined as 197 µg·h/mL, the half-life is 1.9 h, the AUC(0-t) is 197 µg·h/mL and the Cmax worked out at 25.9 µg/mL. In addition, the Tmax in data set [3] is 2 h. In addition, the MRT in data set [3] (read-out: MRT) stood at 4.7 h.
As for `N#Cc1ccnn1-c1ncc(NC(=O)c2cnn(-c3ccc4c5c(cccc35)C(=O)N4)c2C(F)(F)F)cc1C(F)(F)F` [Example 32], the IC50 with OCI-Ly3 cells (Homo sapiens) came to 0.266 µM.
On the same count and under the same terms, for `O=C(Nc1cnc(-c2ncco2)c(C(F)(F)F)c1)c1cnn(-c2ccc3c4c(cccc24)C(=O)N3)c1C(F)(F)F` [Example 34, N-(6-(oxazol-2-yl)-5-(trifluoromethyl)pyridin-3-yl)-1-(2-carbonyl-1,2-dihydrobenzo[cd]indol-6-yl)-5-(trifluoromethyl)-1H-pyrazole-4-carboxamide] the value was 0.212 µM.
On the same count and under the same terms, as for `Cc1nc(-c2ncc(NC(=O)c3cnn(-c4ccc5c6c(cccc46)C(=O)N5)c3C(F)(F)F)cc2C(F)(F)F)oc1C` [Example 35, N-(6-(4,5-dimethyloxazol-2-yl)-5-(trifluoromethyl)pyridin-3-yl)-1-(2-carbonyl-1,2-dihydrobenzo[cd]indol-6-yl)-5-(trifluoromethyl)-1H-pyrazole-4-carboxamide], the figure is 0.263 µM.
With `Cn1ccc(-c2ncc(NC(=O)c3cnn(-c4ccc5c6c(cccc46)C(=O)N5)c3C(F)(F)F)cc2C(F)(F)F)n1` [Example 37, N-(6-(1-methyl-1H-pyrazol-3-yl)-5-(trifluoromethyl)pyridin-3-yl)-1-(2-oxo-1,2-dihydrobenzo[cd]indol-6-yl)-5-(trifluoromethyl)-1H-pyrazole-4-carboxamide], the IC50 in data set [1] came out at 0.048 µM.
For `O=C(Nc1cnc(-n2cccn2)c(Cl)c1)c1cnn(-c2ccc3c4c(cccc24)C(=O)N3)c1C(F)(F)F` [Example 44], the IC50 was 0.08 µM in data set [1] and 0.149 µM in the data set on OCI-Ly3 cells.
As to `Cn1cnc(-c2ncc(NC(=O)c3cnn(-c4ccc5c6c(cccc46)C(=O)N5)c3C(F)(F)F)cc2Cl)n1` [Example 45], the IC50 in data set [1] stood at 0.123 µM.
On the same count and under the same terms, as for `Cc1ncnn1-c1ncc(NC(=O)c2cnn(-c3ccc4c5c(cccc35)C(=O)N4)c2C(F)(F)F)cc1Cl` [Example 47], the figure is 0.123 µM.
Take `O=C(Nc1ccc(-n2nccn2)c(C(F)(F)F)c1)c1cnn(-c2ccc3c4c(cccc24)C(=O)N3)c1C(F)(F)F` [Example 50, N-(4-(2H-1,2,3-triazol-2-yl)-3-(trifluoromethyl)phenyl)-1-(2-oxo-1,2-dihydrobenzo[cd]indol-6-yl)-5-(trifluoromethyl)-1H-pyrazole-4-carboxamide]: the IC50 in data set [1] amounted to 0.039 µM. For the same compound, in the data set with OCI-Ly3 cells (Homo sapiens), the IC50 is 0.219 µM. Besides, in data set [3], the AUC(0-t) turned out to be 54.4 µg·h/mL, the Cmax stood at 3.02 µg/mL and the Tmax was found to be 8 h.
`O=C(Nc1ccc(-n2cccn2)c(C(F)(F)F)c1)c1cnn(-c2ccc3c4c(cccc24)C(=O)N3)c1C(F)(F)F` [Example 51, N-(4-(1H-pyrazol-1-yl)-3-(trifluoromethyl)phenyl)-1-(2-carbonyl-1,2-dihydrobenzo[cd]indol-6-yl)-5-(trifluoromethyl)-1H-pyrazole-4-carboxamide]: the IC50 in the data set with OCI-Ly3 cells (Homo sapiens) turned out to be 0.083 µM.
Consider `O=C(Nc1cnc(-n2nccn2)c(C(F)(F)F)c1)c1cnn(-c2ccc3c4c(cccc24)C(=O)N3)c1C(F)F` [Example 66, N-(6-(2H-1,2,3-triazol-2-yl)-5-trifluoromethylpyridin-3-yl)-5-difluoromethyl-1-(2-oxo-1,2-dihydrobenzo[cd]indol-6-yl)-1H-pyrazole-4-carboxamide], for which the IC50 stood at 0.193 µM in data set [1] and 0.087 µM with OCI-Ly3 cells (Homo sapiens).
Regarding `O=C(Nc1cnc(-n2nccn2)c(Cl)c1)c1cnn(-c2ccc3c4c(cccc24)C(=O)N3)c1C(F)F` [Example 67, N-(6-(2H-1,2,3-triazol-2-yl)-5-chloropyridin-3-yl)-5-difluoromethyl-1-(2-oxo-1,2-dihydrobenzo[cd]indol-6-yl)-1H-pyrazole-4-carboxamide], in data set [1], the IC50 is 0.048 µM.
As for `O=C(Nc1ccc(-n2cccn2)c(C(F)(F)F)c1)c1cnn(-c2cnc3c4c(cccc24)C(=O)N3)c1C(F)(F)F` [Example 74, N-(4-(1H-pyrazol-1-yl)-3-(trifluoromethyl)phenyl)-1-(2-carbonyl-1,2-dihydropyrrolo[4,3,2-ij]isoquinolin-6-yl)-5-(trifluoromethyl)-1H-pyrazole-4-carboxamide], the IC50 in the data set with OCI-Ly3 cells (Homo sapiens) was found to be 0.234 µM.
With `O=C(Nc1cnc(-n2nccn2)c(C(F)(F)F)c1)c1cnn(-c2cnc3c4c(cccc24)C(=O)N3)c1C1CC1` [Example 78, N-(6-(2H-1,2,3-triazol-2-yl)-5-(trifluoromethyl)pyridin-3-yl)-5-cyclopropyl-1-(2-oxo-1,2-dihydropyrrolo[4,3,2-ij]isoquinolin-6-yl)-1H-pyrazole-4-carboxamide], the IC50 in data set [2] turned out to be 0.067 µM.
Take `O=C(Nc1ccc(-n2nccn2)c(C(F)(F)F)c1)c1cnn(-c2cnc3c4c(cccc24)C(=O)N3)c1C1CC1` [Example 83, N-(4-(2H-1,2,3-triazol-2-yl)-3-(trifluoromethyl)phenyl)-5-cyclopropyl-1-(2-oxo-1,2-dihydropyrrolo[4,3,2-ij]isoquinolin-6-yl)-1H-pyrazole-4-carboxamide]: the IC50 in data set [1] was found to be 0.05 µM.
For `N#Cc1cc(-n2ncc(C(=O)Nc3ccnc(C(F)(F)F)c3)c2C(F)(F)F)c2cccc3c2c1NC3=O` [Example 92, 1-(8-cyano-2-carbonyl-1,2-dihydrobenzo[cd]indol-6-yl)-5-(trifluoromethyl)-N-(2-(trifluoromethyl)pyridin-4-yl)-1H-pyrazole-4-carboxamide], in the data set with OCI-Ly3 cells (Homo sapiens), the IC50 came to 0.128 µM.

These data come from US20250059196A1 (SHANGHAI HANSOH BIOMEDICAL CO., LTD., priority 2021, published 2025).
